Inhibition and Reduction data for 15 compounds are collected here from ChEMBL document CHEMBL1133429, “Resistance-modifying agents. Part 7: 2,6-disubstituted-4,8-dibenzylaminopyrimido[5,4-d]pyrimidines that inhibit nucleoside transport in the presence of alpha1-acid glycoprotein (AGP)” (2000).

Assay [1] relates to L1210. Nature of the assay: Inhibition of [3H]thymidine uptake into L1210 cells at a concentration of 1 uM. In kind it is functional. Particulars: Mus musculus.
In assay [2] the test system is L1210. Nature of the assay: Reduction of [3H]thymidine uptake into L1210 cells at a concentration of 1 uM. In kind it is functional, Mus musculus.
The test system of assay [3] is L1210. In words: Compound was tested for inhibition of [3H]thymidine uptake into L1210 cells at a concentration of 10 uM. The class given is functional. Particulars: Mus musculus.

As for `OCCN(CCO)c1nc(N2CCCCC2)c2nc(N(CCO)CCO)nc(N3CCCCC3)c2n1` [DIPYRIDAMOLE], the inhibition (usually the share of the control response that was lost under treatment) at 1 µM in assay [1] was found to be 89%. Also, the Reduction in assay [2] was 96%.

In the case of `COc1ccc(CNc2nc(OCCCO)nc3c(NCc4ccc(OC)cc4)nc(OCCCO)nc23)cc1`, the inhibition at 1 µM in assay [1] was found to be 66%. The Reduction in assay [2] is 26%.

In turn, `COc1ccc(CNc2nc(OCCO)nc3c(NCc4ccc(OC)cc4)nc(OCCO)nc23)cc1` displayed an inhibition at 1 µM in assay [1] of 40%. This compound also returned a Reduction in assay [2] of 30%.

`COc1ccc(CNc2nc(NCC(C)O)nc3c(NCc4ccc(OC)c(OC)c4)nc(NCC(C)O)nc23)cc1OC` (stereo not given) had an inhibition at 1 µM in assay [1] of 85%. In assay [2], this compound registered a Reduction of 14%.

For `OCC(O)COc1nc(N2CCCCC2)c2nc(OCC(O)CO)nc(N3CCCCC3)c2n1` (stereo not given), in assay [3], the inhibition at 10 µM turned out to be 37%. This compound registered a Reduction in assay [2] of 22%.

The compound `OCCN(CCO)c1nc(NCc2ccccc2)c2nc(N(CCO)CCO)nc(NCc3ccccc3)c2n1` registered an inhibition at 1 µM in assay [1] of 38%. For the same compound, in assay [2], the Reduction was determined as 45%.

Compound `COc1ccc(CNc2nc(N(CCO)CCO)nc3c(NCc4ccc(OC)cc4)nc(N(CCO)CCO)nc23)cc1` showed an inhibition at 1 µM in assay [1] of 56%. The Reduction in assay [2] is 18%.

`COc1ccc(CN(C)c2nc(NCC(C)O)nc3c(N(C)Cc4ccc(OC)c(OC)c4)nc(NCC(C)O)nc23)cc1OC` (stereo not given) had an inhibition at 1 µM in assay [1] of 73%. The compound further showed a Reduction in assay [2] of 22%.

In turn, `COc1ccc(CNc2nc(N(CCO)CCO)nc3c(NCc4ccc(OC)c(OC)c4)nc(N(CCO)CCO)nc23)cc1OC` had an inhibition at 1 µM in assay [1] of 71%. The Reduction in assay [2] turned out to be 26%.

`COc1ccc(CNc2nc(OCCO)nc3c(NCc4ccc(OC)c(OC)c4)nc(OCCO)nc23)cc1OC` gave an inhibition at 1 µM in assay [1] of 57%. The same compound yielded a Reduction in assay [2] of 23%.

As to `COc1ccc(CN(C)c2nc(OCCCO)nc3c(N(C)Cc4ccc(OC)cc4)nc(OCCCO)nc23)cc1`, 1 µM produced 69% inhibition in assay [1]. This compound displayed a Reduction in assay [2] of 53%.

In assay [1], `COc1ccc(CNc2nc(NCC(C)O)nc3c(NCc4ccc(OC)cc4)nc(NCC(C)O)nc23)cc1` (stereo not given) returned an inhibition at 1 µM of 57%. Moreover, the Reduction in assay [2] was determined as 45%.

`COc1ccc(CN(C)c2nc(N(CCO)CCO)nc3c(N(C)Cc4ccc(OC)cc4)nc(N(CCO)CCO)nc23)cc1`: in assay [1], the inhibition at 1 µM is 75%. Also, the Reduction in assay [2] was 47%.

Compound `COc1ccc(CN(C)c2nc(OCCO)nc3c(N(C)Cc4ccc(OC)cc4)nc(OCCO)nc23)cc1` registered an inhibition at 1 µM in assay [1] of 73%. The compound further had a Reduction in assay [2] of 77%.

`COc1ccc(CN(C)c2nc(NCC(C)O)nc3c(N(C)Cc4ccc(OC)cc4)nc(NCC(C)O)nc23)cc1` (stereo not given): the inhibition at 1 µM in assay [1] amounted to 39%. In addition, the Reduction in assay [2] is 86%.
